Laboratory results from the supplement of paper PMC10307832.

What was measured:
Experiment in all cases: relative viability (nuclei count vs DMSO), 5 days (fraction); higher = more cells survive
[1] = compound: CC(C)=CC[C@@H](O)C1=CC(=O)c2c(O)ccc(O)c2C1=O [Shikonin] + C[C@@H](Oc1cc(-c2cnn(C3CCNCC3)c2)cnc1N)c1c(Cl)ccc(F)c1Cl [Crizotinib] (partner 1 µM)
Outline: (§1)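 One day after seeding in 1536-well plates, lung cancer cell lines were dosed by pin tool. Dosing was either single-drug or a fixed anchor-drug dose plus five library-drug doses (not always all listed) in √10 steps. After 5 days, nuclei were stained in one fix-and-stain step and counted on 4× images, and relative viability is the nuclei count of treated wells over that of vehicle wells, given as the median of duplicate plates.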

[2] = compound: CC(C)N(CCCNC(=O)Nc1ccc(C(C)(C)C)cc1)C[C@H]1O[C@@H](n2ccc3c(N)ncnc32)[C@H](O)[C@@H]1O + CC(=O)Nc1cccc(-n2c(=O)n(C3CC3)c(=O)c3c(Nc4ccc(I)cc4F)n(C)c(=O)c(C)c32)c1 [Trametinib] (partner 0.02 µM)
Outline: as §1

[3] = compound: CC(C)N(CCCNC(=O)Nc1ccc(C(C)(C)C)cc1)C[C@H]1O[C@@H](n2ccc3c(N)ncnc32)[C@H](O)[C@@H]1O + CS(=O)(=O)N1CCN(Cc2cc3nc(-c4cccc5[nH]ncc45)nc(N4CCOCC4)c3s2)CC1 [Pictilisib] (partner 1 µM)
Outline: as §1

[4] = compound: CC(C)=CC[C@@H](O)C1=CC(=O)c2c(O)ccc(O)c2C1=O [Shikonin] + COc1cc2c(Oc3ccc(NC(=O)C4(C(=O)Nc5ccc(F)cc5)CC4)cc3F)ccnc2cc1OCCCN1CCOCC1 [Foretinib] (partner 0.25 µM)
Outline: as §1

| Cell Line | relative viability ([1]; first compound 0.01 µM) | relative viability ([1]; first compound 0.1 µM) | relative viability ([1]; first compound 0.3162 µM) | relative viability ([1]; first compound 1 µM) | relative viability ([2]; first compound 0.08 µM) | relative viability ([2]; first compound 0.253 µM) | relative viability ([2]; first compound 0.8 µM) | relative viability ([2]; first compound 2.53 µM) | relative viability ([2]; first compound 8 µM) | relative viability ([3]; first compound 0.08 µM) | relative viability ([3]; first compound 0.253 µM) | relative viability ([3]; first compound 0.8 µM) | relative viability ([3]; first compound 2.53 µM) | relative viability ([3]; first compound 8 µM) | relative viability ([4]; first compound 0.01 µM) | relative viability ([4]; first compound 0.1 µM) | relative viability ([4]; first compound 0.3162 µM) | relative viability ([4]; first compound 1 µM) |
| --- | --- | --- | --- | --- | --- | --- | --- | --- | --- | --- | --- | --- | --- | --- | --- | --- | --- | --- |
| EKVX | 1.05 | 1.2 | 0.996 | 1.07 | 0.392 | 0.339 | 0.376 | 0.359 | 0.327 | 0.454 | 0.407 | 0.446 | 0.468 | 0.423 | 0.751 | 0.646 | 1.05 | 0.762 |
| NCI-H358 | 0.699 | 0.484 | 0.619 | 0.63 | 0.135 | 0.137 | 0.132 | 0.13 | 0.138 | 0.356 | 0.335 | 0.317 | 0.359 | 0.342 | 0.651 | 0.729 | 0.707 | 0.604 |
| EPLC-272H | 1.03 | 0.901 | 0.953 | 0.865 | 0.246 | 0.273 | 0.27 | 0.333 | 0.298 | 0.286 | 0.253 | 0.314 | 0.284 | 0.322 | 0.715 | 0.601 | 0.783 | 0.726 |
| NCI-H2228 | 0.448 | 0.532 | 0.414 | 0.421 | 0.631 | 0.375 | 0.388 | 0.52 | 0.526 | 0.483 |  | 0.462 | 0.478 | 0.28 | 0.824 | 0.619 | 0.895 | 0.806 |
| LXF-289 | 0.856 | 0.825 | 0.773 | 0.844 | 0.661 | 0.684 | 0.651 | 0.732 | 0.71 | 0.775 | 0.752 | 0.788 | 0.852 | 0.738 | 0.987 | 1.02 | 0.998 | 0.972 |
| NCI-H2023 | 0.767 | 0.583 | 0.667 | 0.604 | 0.536 | 0.579 | 0.559 | 0.495 | 0.459 | 0.265 | 0.215 | 0.219 | 0.333 | 0.217 | 0.921 | 0.863 | 0.887 | 0.931 |
| NCI-H3122 | 0.288 | 0.271 | 0.278 | 0.248 | 0.242 | 0.299 | 0.202 | 0.242 | 0.247 | 0.653 | 0.576 | 0.634 | 0.493 | 0.553 | 0.959 | 0.997 | 0.947 | 1.01 |
| NCI-H1755 | 0.972 | 1.09 | 0.88 | 0.887 | 0.758 | 0.736 | 0.719 | 0.733 | 0.771 | 0.469 | 0.478 | 0.357 | 0.452 | 0.394 | 0.932 | 1.02 | 0.967 | 0.956 |
| HCC-78 | 0.325 | 0.388 | 0.357 | 0.377 | 0.716 | 0.867 | 0.804 | 0.586 | 0.736 | 0.156 | 0.196 | 0.263 | 0.192 | 0.212 | 0.562 | 0.621 | 0.614 | 0.627 |
